{"source": "patent US12311028B2", "about": "“Polymer-based macromolecular prodrugs” (The Children's Hospital of Philadelphia, priority 2018, dated 2025)", "key": {"[1]": {"tested_on": "orthotopic BE(2)C xenografts", "type": "in vivo", "conditions": "PF108-(SN22)2 10 mg/kg SN22 IV once a week x4; irinotecan 10 mg/kg SN38 twice a week", "source_text": "Saline or chemically unmodified Pluronic F-108 were used as negative controls."}, "[2]": {"tested_on": "orthotopic IMR-32 xenografts", "assay": "Therapeutic efficacy of PF108-(SN22)2 in orthotopic IMR-32 xenograft model", "type": "in vivo, mice", "conditions": "PF108-(SN22)2 once a week; irinotecan 2x a week; 10 mg drug per kg", "source_text": "Mice were inoculated with 10^6 luciferase-expressing IMR-32 cells. […] Tumor-associated signal was monitored by quantitative bioluminescence. Quantitative data are shown as mean±SD."}, "[3]": {"tested_on": "SKNBE(2)C orthotopic xenograft", "assay": "NB orthotopic xenograft model with chemo-resistant SKNBE(2)C", "type": "in vivo, mice", "conditions": "once a week x4 weeks; prodrugs 10 mg/kg/dose, CPT-11 15 mg/kg/dose", "description": "Chemoresistant, luciferase transfected, SKNBE(2)C cells (107) were injected in the perineal fat pad of nude mice. Mice were divided into five groups: no treatment, or treatment with blank PEG, CPT-11, PEG-[SN38]4 or PEG-[SN22]4 (10 animals per group). Treatment started when tumors reached about 0.2 cm^3.\nMice were divided into five groups: no treatment, or treatment with blank PEG, CPT-11, PEG-[SN22]4 or PEG-[SN38]4 (10 animals per group). Treatment started when tumors reached about 0.2 cm^3.\nNext, PEG-[SN22]4, PEG-[SN38]4 and CPT-11 in a NB orthotopic xenograft mouse model with the chemo-resistant NB line SKNBE(2)C. BE(2)C cells were transfected with a luciferase expression vector to allow for bioluminescent imaging. Mice were treated once a week for 4 weeks with either PEG-[SN22]4 (10 mg/kg/dose), PEG-[SN38]4 (10 mg/kg/dose) or CPT-11 (15 mg/kg/dose).\nBE(2)C cells were transfected with a luciferase expression vector to allow for bioluminescent imaging. Mice were treated once a week for four weeks with either PEG-[SN22]4 (10 mg/kg/dose), PEG-[SN38]4 (10 mg/kg/dose) or CPT-11 (15 mg/kg/dose)."}, "[4]": {"tested_on": "spontaneous NB tumors, TH-MYCN transgenic mouse", "assay": "TH-MYCN transgenic mouse model of de novo NB", "type": "in vivo, mice", "conditions": "once a week x4 weeks; PEG-[SN22]4 10 mg/kg/dose, CPT-11 15 mg/kg/dose", "description": "Mice were treated with saline (N=8), CPT-11 (15 mg/kg/dose; N=7), PEG-[SN38]4 (10 mg/kg/dose; N=6) or PEG-[SN22]4 (10 mg/kg/dose; N=6) IV by tail vein once a week×4 weeks. Treatments started when the mice were about 5 weeks old with a tumor size about 1-2 cm^3.\nPEG-[SN22]4 was also used to treat de novo NBs in a TH-MYCN transgenic mouse model. Spontaneous tumors develop in paraspinal ganglia or in the adrenal gland by 4-5 weeks in almost all mice with two copies of the transgene. Mice were divided into 4 groups once tumors became palpable (4-5 weeks): control-no treatment; CPT-11 treatment (15 mg/kg/dose), PEG-[SN38]4 (10 mg/kg/dose), or PEG-[SN22]4 (10 mg/kg/dose). Mice were treated once a week for 4 weeks. […] Mice were sacrificed when they became symptomatic from tumor burden.\nMice. Six-week-old Foxn1^nu/Foxn1^nu (JAX stock #007850) mice from Jackson Laboratories are used. Mice are maintained under humidity- and temperature-controlled conditions in a light/dark cycle that is set at 12-hour intervals. These mice are in a 129-SvJ background. Mice homozygous for the transgene generally develop tumors within 4-5 weeks."}, "[5]": {"tested_on": "orthotopic BE(2)C xenografts", "assay": "Therapeutic efficacy of [PEG-SN38-BG]8 in orthotopic model of refractory NB", "type": "in vivo, mice", "experimental": "FIG. 12: Therapeutic efficacy of [PEG-SN38-BG]8 in an orthotopic model of refractory, high-risk NB. Athymic nude (nu/nu) mice were inoculated with BE(2)C cells (10^6) stably expressing luciferase. Treatment with [PEG-SN38-BG]8 was administered intravenously at a dose equivalent to 10 mg/kg of SN-38 twice a week for 4 weeks. […] A group of mice administered with saline (no treatment) was used as a negative control. In an additional group, the prodrug was administered using the same regimen to animals allowed to reach a 10-fold larger tumor size (2.0 cm^3, ‘large tumors’). Tumor-associated signal was monitored by quantitative bioluminescence. Data presented graphically in (A) are expressed as mean±SD. The survival curves for respective animal groups over a 190-day period are shown in (B).\nFIG. 16: Therapeutic efficacy of [PEG-SN38-BG]8 in an orthotopic model of refractory, high-risk NB. Athymic nude (nu/nu) mice were inoculated with BE(2)C cells (10^6) stably expressing luciferase. Treatment with [PEG-SN38-BG]8 was administered intravenously at a dose equivalent to 10 mg/kg of SN-38 twice a week for 4 weeks. […] Groups of mice administered either with blank PEG or saline (no treatment) were used as negative controls (A). […] Tumor-associated signal was monitored by quantitative bioluminescence. Data are presented as mean±SD."}, "[6]": {"tested_on": "orthotopic IMR-32 xenografts", "assay": "Therapeutic efficacy of [PEG-SN38-BG]8 in orthotopic IMR-32 xenograft model", "type": "in vivo, mice", "conditions": "doses equivalent to 10 mg SN-38 per kg, 2x week over 4 weeks, from day 21", "source_text": "(§1) FIG. 15: Therapeutic efficacy of [PEG-SN38-BG]8 in an orthotopic xenograft model of chemo-naïve, MYCN-amplified NB. Mice were inoculated with 10^6 luciferase-expressing IMR-32 cells. […] Tumor-associated signal was monitored by quantitative bioluminescence. Data in (A) are shown as mean±SD. Representative bioluminescent images for each group are included in (B).\nas §1, with “17:” for “15:”, “Representative” for “Representative bioluminescent”, “images” for “images for each group”\nThe effectiveness of the tripartite prodrug strategy in providing sustained anticancer effects against aggressive NB tumors was shown experimentally in an orthotopic IMR-32 xenograft model (FIG. 15)."}, "[7]": {"tested_on": "disseminated BE(2)C tumor deposits", "assay": "Therapeutic efficacy of [PEG-SN38-BG]8 in model of metastatic, refractory NB", "type": "in vivo, mice", "conditions": "from day 25, 4 weeks 2x/week; prodrug 10 mg SN-38 per kg, irinotecan 15 mg/kg", "experimental": "Mice were injected through the tail vein with 10^6 luciferase-expressing BE(2)C cells. […] Tumor-associated signal was monitored by quantitative bioluminescence ((A), data shown as mean±SD). Representative images are included in (B)."}, "[8]": {"tested_on": "orthotopic BE(2)C xenograft tumors", "assay": "Therapeutic efficacy of NET-directed Pluronic F-108 tripartite prodrug in refractory NB model", "type": "in vivo, mice", "conditions": "4 weeks 2x/week; constructs 10 mg SN-38 per kg, irinotecan 15 mg/kg", "source_text": "FIG. 21: Therapeutic efficacy of NET-directed delivery in a model of refractory NB. Mice were inoculated in the suprarenal fat pad with 10^6 luciferase-expressing BE(2)C cells. […] Alternatively, tumors were allowed to reach 2 cm^3 before starting therapy (B). Disease progression was monitored by quantitative bioluminescence. Tumor growth data are shown as mean±SD."}, "[9]": {"tested_on": "NLF and ABCG2-expressing clones", "assay": "Growth of NLF and ABCG2-expressing clones in presence of SN38 or SN22 (IncuCyte)", "type": "cell-based, human", "experimental": "FIG. 7: ABCG2 expression and growth of NLF and transfected clones. (A) Western analysis was performed on NLF and three single-cell clones with an ABCG2 antibody (Santa Cruz), compared to an actin control. Clones 1, 2 and 3 had trace, low and, intermediate levels of ABCG2 expression, respectively. (B) Growth of NLF and ABCG2-expressing clones in the presence of SN38 or SN22 (50 ng/ml). Growth shown at day 4.\nTo evaluate susceptibility of SN38 and SN22 to ABCG2 efflux, an ABCG2-null NB cell line, NLF, was identified. NLF was transfected with an ABCG2 expression vector, and then selected single-cell clones with trace, low, and intermediate levels of ABCG2 expression (FIG. 7A). Next, the sensitivity of NLF and ABCG2-expressing clones to different concentrations of SN38 or SN22 and monitored growth continuously using IncuCyte® S3 Live-Cell Analysis System was assessed."}, "BE(2)C cells [10]": {"tested_on": "BE(2)C cells", "assay": "Antiproliferative effect of [PEG-SN38-BG]8 on BE(2)C with/without vorinostat or entinostat", "type": "cell-based, human", "conditions": "6 hr exposure, 25-100 nM SN-38 equivalent, vorinostat 1.25-5.0 μM, 6 days post treatment", "description": "Cell growth was measured by bioluminescence. BE(2)C cell survival data at 6 days post treatment were analyzed for hyperadditivity by applying a model z=z0+A·x+B·y+C·[x·y] and determining the significance of the interaction term C.\nThe effect on cell growth kinetics was studied in comparison to free SN-38 or bipartite [PEG-SN38]8 lacking functionalization with BG (A). Cells were exposed for 4 hr to equivalent concentrations of the compounds, corresponding to 125 nM of SN-38. In an additional experiment (B), the response to treatment with [PEG-SN38-BG]8 was examined with/without a HDAC1-specific inhibitor, entinostat (0-5 μM). The doses of the prodrug were varied within a range equivalent to 0-100 nM SN-38, and the exposure duration was fixed at 6 hr. Cell growth was monitored by bioluminescence. The response is shown as % cell survival (mean±SD) at 6 days post-treatment. Experimental data were analyzed for hyperadditivity using a model z=z0+A·x+B·y+C·[x·y] and determining the significance of the interaction term C.\nTo evaluate the specific contribution of the targeting ligand incorporated in the prodrug structure, the cell growth inhibitory activity of [PEG-SN38-BG]8 on NET-expressing, chemoresistant NB cells was compared to that of a control molecule, [PEG-SN38]8, constructed analogously but without the BG moiety."}, "BE(2)C cells [11]": {"tested_on": "BE(2)C cells", "assay": "Antiproliferative effect of PF68-SN38-BG vs PF68-SN38 and SN-38 on BE(2)C, 15-min exposure", "type": "cell-based, human", "conditions": "SN-38 equivalent dose 0-25 nM", "source_text": "Blank Pluronic F-68 had no effect on cell growth."}, "BE(2)C cells [12]": {"tested_on": "BE(2)C cells", "conditions": "derived at relapse; cited from earlier work"}, "BE(1) cells": {"tested_on": "BE(1) cells", "conditions": "derived at diagnosis; cited from earlier work"}, "BE(2)C cells [13]": {"tested_on": "BE(2)C cells", "conditions": "free SN22 with or without unmodified Pluronic F-108"}}, "note": "“Also recorded” adds a separate entry of the source. Read-outs that look alike come from different tables or passages of the source.", "data": [{"smiles": "CCc1c2c(nc3ccc(OC(=O)N4CCC(N5CCCCC5)CC4)cc13)-c1cc3c(c(=O)n1C2)COC(=O)[C@]3(O)CC", "note": "[irinotecan]", "values": [{"measurement": "tumor growth (bioluminescence)", "setting": "[1]", "result": "marginal antitumor effect"}, {"measurement": "tumor response (bioluminescence)", "setting": "[2]", "result": "only a transient response"}, {"measurement": "tumor response during treatment", "setting": "[3]", "result": "had no effect; also recorded: had very little effect; also recorded: only slightly delayed"}, {"measurement": "tumor response", "setting": "[4]", "result": "only slightly delayed"}, {"measurement": "tumor growth (bioluminescence), FIG. 16A", "setting": "[5]; 2x/week over 4 weeks, prodrugs 10 mg/kg SN-38, irinotecan 15 mg/kg", "result": "no antitumor effect"}, {"measurement": "tumor growth (bioluminescence), FIG. 12", "setting": "[5]; [PEG-SN38-BG]8 10 mg/kg SN-38 IV twice a week x4 weeks, irinotecan 15 mg/kg twice a week", "result": "marginal therapeutic effect and survival extension"}, {"measurement": "t50% survival (event-free)", "setting": "[5]; small tumors, twice a week x4 weeks", "result": 20, "unit": "days"}, {"measurement": "tumor response (bioluminescence)", "setting": "[6]", "result": "tumors starting to regrow immediately after treatment cessation; also recorded: able to inhibit tumor growth for the duration of treatment"}, {"measurement": "disease progression (bioluminescence)", "setting": "[7]", "result": "no significant effect on the disease progression"}, {"measurement": "tumor growth (bioluminescence)", "setting": "[8]", "result": "marginal effect"}]}, {"smiles": "CCc1c2c(nc3ccc(O)cc13)-c1cc3c(c(=O)n1C2)COC(=O)[C@]3(O)CC", "note": "[SN38, 7-ethyl-10-hydroxy-camptothecin]", "values": [{"measurement": "sensitivity of clones with higher ABCG2 levels", "setting": "[9]", "result": "increasingly resistant"}, {"measurement": "potentiation of antiproliferative effect by vorinostat", "setting": "BE(2)C cells [10]", "result": "moderately synergized"}, {"measurement": "BE(2)C cell growth inhibition", "setting": "BE(2)C cells [11]", "result": "marginally inhibited"}, {"measurement": "concentration required for cell growth inhibition by 90% (therapeutic threshold)", "setting": "BE(2)C cells [12]", "result": 25, "unit": "ng/mL"}, {"measurement": "concentration required for cell growth inhibition by 90%", "setting": "BE(1) cells", "result": 2, "unit": "ng/mL"}]}, {"smiles": "CCc1c2c(nc3ccccc13)-c1cc3c(c(=O)n1C2)COC(=O)[C@]3(O)CC", "note": "[SN22, 7-ethyl-camptothecin]", "values": [{"measurement": "sensitivity of clones with higher ABCG2 levels", "setting": "[9]; NLF clones with trace, low, intermediate ABCG2, 50 ng/ml, day 4", "result": "remained fully sensitive"}, {"measurement": "responsiveness of BE(2)C cells vs IMR-32", "setting": "BE(2)C cells [13]", "result": "strongly shifted in comparison to IMR-32 toward higher doses and longer exposure durations"}]}]}
